According to patent US20100034878A1 (priority 2006, published 2010):
Read-outs that look alike come from different tables or passages of the source.

Key:
[1] = target: CYP 2C9 (Homo sapiens, UniProt P11712); conditions: cited from earlier work
[2] = in vivo; cited from earlier work
[3] = in vivo; cited from earlier work; remark: listed apart in the source
[4] = daily vitamin K supplementation and INR stability in patients with very unstable INRs; type: in vivo; conditions: eight patients with very unstable INR on VKA
Procedure: The recommended dietary allowance for vitamin K is approximately 70 mcg. […] In addition, the administration of a VKA often requires that the patient take a half tablet on some days while other patients may require 1.5 or 2 tablets on other days. Consequently, the workable range of vitamin K per tablet is 10 mcg to 600 mcg, the preferred range is 25 mcg to 400 mcg, and the most preferred is 50 mcg to 200 mcg.
It was tested whether daily vitamin K supplementation would improve stability of the INR in patients who had very unstable INRs. […] The VKORC1 status itself was not assessed because the test was done prior to the VKORC1 gene being identified. INR values were collected for several months before and after daily vitamin K was started in eight patients with very unstable INR values.

Chain of CYP 2C9 (P11712 whole entry): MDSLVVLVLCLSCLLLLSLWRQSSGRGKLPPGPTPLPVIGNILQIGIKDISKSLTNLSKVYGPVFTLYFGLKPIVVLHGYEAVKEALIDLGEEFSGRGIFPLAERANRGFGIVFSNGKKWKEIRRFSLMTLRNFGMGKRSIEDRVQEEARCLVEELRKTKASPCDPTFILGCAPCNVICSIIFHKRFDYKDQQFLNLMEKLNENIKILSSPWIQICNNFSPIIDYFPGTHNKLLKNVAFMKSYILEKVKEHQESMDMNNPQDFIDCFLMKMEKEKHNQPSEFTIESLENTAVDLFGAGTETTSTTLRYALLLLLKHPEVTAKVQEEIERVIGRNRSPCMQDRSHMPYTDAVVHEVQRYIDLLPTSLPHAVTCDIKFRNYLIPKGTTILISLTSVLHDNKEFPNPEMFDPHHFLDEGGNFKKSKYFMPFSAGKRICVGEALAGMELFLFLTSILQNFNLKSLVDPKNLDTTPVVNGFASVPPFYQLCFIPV

Compound: CC(=O)C[C@H](c1ccccc1)c1c(O)c2ccccc2oc1=O (single isomer, unassigned) [R-isomer of warfarin]
- metabolism by the 2C9 enzyme [1]: not metabolized by the 2C9 enzyme

Compound: CCC(c1ccccc1)c1c(O)c2ccccc2oc1=O (racemic) [Racemic phenprocoumon, phenprocoumon]
- elimination half-life [2]: approximately 156 hrs
- fraction eliminated as the parent drug [3]: approximately 40%

Compound: CC(=O)C[C@@H](c1ccccc1)c1c(O)c2ccccc2oc1=O (single isomer, unassigned) [S-isomer of warfarin]
- metabolism by the 2C9 enzyme ([1]; hepatic cytochrome P-450 2C9): almost totally metabolized by the 2C9 enzyme

Compound: vitamin K
- fluctuation of INRs after starting daily vitamin K supplement [4]: fluctuated less
- percent of INRs in range after versus before starting daily vitamin K ([4]; daily vitamin K supplement, INR collected several months before and after): more than doubled
